In patent US10752900B2, “Oligonucleotides for modulating gene expression and uses thereof” (BIOGENERA S.P.A., priority 2012, dated 2020):

Legend:
[1] = tested on: MYCN gene; assay: QT-PCR, MYCN mRNA in WERI-Rb1 cells; type: cell-based; conditions: Table 6
Procedure: For the purpose of assessing the ability of the oligonucleotides of the present invention to modulate the expression of the target genes, their ability to reduce the quantity of messenger RNA was analyzed using the Real-Time PCR technique. For this purpose, use was made of 24-well plates, which were seeded with 5.0×10^4 cells with 0.3 ml of OPTI-MEM (GIBCO BRL) medium, 4% FBS and 2 mM L-glutammine (experiments in triplicate) per well. The cells were incubated for 24 hours at 37° C., in an atmosphere containing 5% CO2 to permit adherence to the base of the wells. For each well, the oligonucleotides were analyzed at the following final concentrations: • the antisense oligonucleotides siRNA and siRNA gapmer (i.e. the oligonucleotides containing one or more monomers of chemically modified nucleic acids at the 3' or 5' end, while in the central portion they have monomers of nucleic acids that have not been modified or have been modified at the level of the phosphodiester bond as a phosphorothioate bond) were used at 200 nM; • the antisense oligonucleotides containing phosphorothioate DNA monomers, the RNA antigene oligonucleotides (agRNA) and the oligonucleotides containing DNA monomers and LNA monomers were used at 10 μM; • the morpholino oligonucleotides were used at a concentration of 1 μM, and • the PNA oligonucleotides were administered at a concentration of 1 μM. The cells were treated with the oligonucleotides, adding FBS up to 4% 6 hours after administration of the same. After 24 hours the total RNA was extracted from each well and purified using the RNeasy Mini Kit (QIAGEN). As a control, use was made of the same cell lines as listed above treated with sterile water instead of oligonucleotides. Each RNA sample was quantified (in duplicate) using a NanoDrop ND-1000 spectrophotometer (NanoDrop Technologies). The first strand of cDNA was produced using the cDNA Synthesis Kit for RT-PCR (Roche). For the cDNA synthesis reaction a total of 1 μg of RNA was used. For the real-time PCR, 10 ng of cDNA in a final volume of 20 μl was used with SYBR Green Master Mix 2× (Applied Biosystems) (3 identical experiments were conducted in triplicate). Two housekeeping genes were used as positive controls: GAPDH and beta-actin (ACTB). The conditions of the QT-PCR reaction were: 10 min at 95° C., 20 sec at 95° C., and 30 sec at 60° C., for 50 cycles. The PNAs having SEQ ID NO: 1-12 were also tested on different cell lines which overexpress MYCN (Kelly, SKNBE2c, RH30, […] 1 and H69). The results are shown in Table 6 and confirm the selectivity and specificity of the inhibition effect of the PNAs on the product of protein translation of the MYCN gene.

[2] = tested on: SKNBE2c; assay: Cellular proliferation assay (ATP-Lite), SKNBE2c cells; type: cell-based, human; conditions: Table 6
Procedure: (§1) For the purpose of assessing the gene modulation ability of the oligonucleotides of the present invention, the effect of their administration on cell viability was determined. For this purpose 5×10^3 cells per well were seeded into 96-well cell culture plates (experiments conducted in triplicate) with 100 μl of OPTI-MEM (GIBCO BRL) medium containing 4% FBS and 2 mM of L-glutammine. The PNA oligonucleotides were administered at different concentrations (1 μM-2.5 μM-5 μM-10 μM) in order to observe a dose-effect relationship. The viability of the treated cells was determined at 48, 72, 96 and 168 hours after treatment. Cell viability was assessed by means of an ATP-Lite assay (Luminescence ATP Detection Assay System, PerkinElmer) and is reported as the ratio between the average signal of the treated wells compared to the average value of the wells of untreated control cells. The cells were processed following the instructions provided with the kit. The assays were performed on the same cell lines used to determine the levels of the MYCN gene messenger and listed in the paragraph: Treatments with Oligonucleotides-QT-PCR. The PNAs having SEQ ID NO: 1-12 were also tested on different cell lines which overexpress MYCN (Kelly, SKNBE2c, RH30, […] 1 and H69). The results are shown in Table 6 and confirm the selectivity and specificity of the inhibition effect of the PNAs on the product of protein translation of the MYCN gene.

[3] = tested on: WERI-Rb1; assay: Cellular proliferation assay (ATP-Lite), WERI-Rb1 cells; type: cell-based; conditions: Table 6
Procedure: as §1

[4] = tested on: Kelly cells; assay: Cellular proliferation assay (ATP-Lite), Kelly cells; type: cell-based, human; conditions: for Cell Prolif (%) 1 μM 72 h: PNA 1 μM; for Cell Prolif. (%) 5 μM 72 h: PNA 5 μM; for Cell Prolif. (%) 10 μM 72 h: PNA 10 μM; for Cell Prolif (%) 2,5 μM 72 h: PNA 2,5 μM; for Cell Prolif. (%): Table 1, treated vs untreated control cells; for Kelly % cell prol.: Table 6
In short: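 Kelly cells seeded at 5×10^3/well in OPTI-MEM with 4% FBS and 2 mM L-glutamine, in triplicate. PNA oligonucleotides at 1, 2.5, 5 or 10 μM. Viability by ATP-Lite luminescence at 48, 72, 96 and 168 h, as ratio to untreated controls.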

Row | Substance | WERI-Rb1 % mRNA [1] | SKNBE2c % cell prol. [2] | WERI-Rb1 % cell prol. [3] | Cell Prolif (%) 1 μM 72 h [4] | Cell Prolif. (%) 5 μM 72 h [4] | Cell Prolif. (%) 10 μM 72 h [4] | Cell Prolif (%) 2,5 μM 72 h [4] | Cell Prolif. (%) [4] | Kelly % cell prol. [4] | (Kelly) Cell Prolif. % ([4]; Table 7, SEQ ID NO: 5 and guanine-group mutants)
1 | SEQ ID NO: 2: PNA antigene oligonucleotide GGGTGGATGCGGGGGG directed against MYCN (PNA backbone, chemistry not fully specified) | 46% | 52% | 79% | 74% | 12% | 2% | 32% | 32% | 32% | 
2 | SEQ ID NO: 9: PNA antigene oligonucleotide CCCTGCAGTCGGCGGG directed against MYCN (all peptide nucleic acid (PNA)) | 36% | 64% | 79% | 86% | 42% | 20% | 64% | 64% | 60% | 
3 | SEQ ID NO: 7: PNA antigene oligonucleotide CGCGCTGGGTGGATGC directed against MYCN (all peptide nucleic acid (PNA)) | 38% | 58% | 79% | 80% | 31% | 8% | 54% | 57% | 57% | 
4 | SEQ ID NO: 10: PNA antigene oligonucleotide CGGCCGCGGGCCGCCA directed against MYCN (PNA backbone, chemistry not fully specified) | 30% | 70% | 85% |  |  |  |  | 65% | 64% | 
5 | SEQ ID NO: 1: PNA ATGCCGGGCATGATCT against MYCN; subject of patent EP 1618195, control sequence used for comparison (all peptide nucleic acid (PNA)) [reference compound] | 31% | 72% | 82% | 89% | 50% | 24% | 66% | 70% | 66% | 
6 | SEQ ID NO: 8: PNA antigene oligonucleotide GTCTGGACGCGCTGGG directed against MYCN (all peptide nucleic acid (PNA)) | 40% | 56% | 78% | 80% | 32% | 11% | 57% | 59% | 59% | 
7 | SEQ ID NO: 5: PNA antigene oligonucleotide GCTGGGTGGATGCGGG directed against MYCN (PNA backbone, chemistry not fully specified) | 38% | 64% | 80% | 79% | 27% | 5% | 53% | 53% | 53% | 53%
8 | SEQ ID NO: 11: PNA antigene oligonucleotide GGGAACTGTGTTGGAG directed against MYCN (PNA backbone, chemistry not fully specified) | 30% | 71% | 84% |  |  |  |  | 68% | 64% | 
9 | SEQ ID NO: 6: PNA antigene oligonucleotide TGGACGCGCTGGGTGG directed against MYCN (PNA backbone, chemistry not fully specified) | 37% | 57% | 80% | 82% | 35% | 13% | 59% | 54% | 54% | 
10 | SEQ ID NO: 12: PNA antigene oligonucleotide TGTCTGGACGCGCTGG directed against MYCN (all peptide nucleic acid (PNA)) | 30% | 71% | 84% | 84% | 40% | 16% | 60% | 69% | 65% | 
11 | SEQ ID NO: 3: PNA antigene oligonucleotide GATGCGGGGGGCTCCT directed against MYCN (PNA backbone, chemistry not fully specified) | 43% | 53% | 78% | 78% | 19% | 3% | 41% | 41% | 41% | 
12 | SEQ ID NO: 4: PNA antigene oligonucleotide GTCGGCGGGAGGTAAG directed against MYCN (PNA backbone, chemistry not fully specified) | 41% | 59% | 79% | 78% | 21% | 3% | 48% | 48% | 48% | 
